{"source": "patent US20240408211A1", "about": "“COMPOSITIONS AND METHODS OF AMELIORATING AVERSIVENESS OF AVERSIVE STIMULI BY INHIBITION OF PURINERGIC RECEPTORS” (Monell Chemical Senses Center, priority 2021, published 2024)", "key": {"[1]": {"details": "solutions (2 mg/mL) and suspensions in acidic media; room temperature; cited from earlier work"}, "mice": {"system": "mice", "details": "intraperitoneal administration; cited from earlier work"}, "P2X3/P2X2/3": {"system": "P2X3/P2X2/3", "details": "cited from earlier work"}, "nodose C-fiber": {"system": "nodose C-fiber", "details": "guinea pigs; cited from earlier work"}, "[2]": {"details": "intraperitoneal, cited from earlier work"}, "P2X2/3": {"molecular_target": "T1, P2X2/3 (Homo sapiens, UniProt P56373+Q9UBL9)", "T1 construct": "expressed in transfected cells; host or cells: HEK293", "T1 sequence (Q9UBL9 1-471)": "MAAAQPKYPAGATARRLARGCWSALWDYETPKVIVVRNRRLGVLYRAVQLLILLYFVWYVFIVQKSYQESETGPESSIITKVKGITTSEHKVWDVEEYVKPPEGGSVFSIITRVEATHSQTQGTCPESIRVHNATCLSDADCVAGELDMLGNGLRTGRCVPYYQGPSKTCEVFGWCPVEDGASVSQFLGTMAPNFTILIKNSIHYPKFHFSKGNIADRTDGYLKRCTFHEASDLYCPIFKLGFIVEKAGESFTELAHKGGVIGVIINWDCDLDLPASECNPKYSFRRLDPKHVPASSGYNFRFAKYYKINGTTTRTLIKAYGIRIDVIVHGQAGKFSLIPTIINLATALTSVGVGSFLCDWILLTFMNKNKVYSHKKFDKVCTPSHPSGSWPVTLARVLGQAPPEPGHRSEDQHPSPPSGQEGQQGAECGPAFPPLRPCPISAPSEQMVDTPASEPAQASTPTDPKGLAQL", "T1 sequence (P56373 1-397)": "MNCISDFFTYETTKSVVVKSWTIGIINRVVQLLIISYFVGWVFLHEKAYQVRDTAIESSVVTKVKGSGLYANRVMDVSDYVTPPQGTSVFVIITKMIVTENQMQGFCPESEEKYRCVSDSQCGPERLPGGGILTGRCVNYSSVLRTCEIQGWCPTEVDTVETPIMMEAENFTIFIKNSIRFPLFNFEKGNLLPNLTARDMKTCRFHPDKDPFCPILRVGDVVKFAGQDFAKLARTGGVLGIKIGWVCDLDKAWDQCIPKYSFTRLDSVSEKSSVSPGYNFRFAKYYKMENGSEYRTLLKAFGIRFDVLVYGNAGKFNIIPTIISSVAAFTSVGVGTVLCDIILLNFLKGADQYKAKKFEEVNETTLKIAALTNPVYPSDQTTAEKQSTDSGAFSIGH", "test": "P2X2/3 stable HEK293 cell lines responding to α,β-meATP (screening assay)", "format": "cell-based", "details": "P2X2/3 stable HEK293 lines; FIGS. 8A and 8B", "experimental": "In this study, we built stable cell lines expressing P2X2/3 in HEK293 cells via transfection with either P2X2-Neo or P2X3-Zeo constructs, following which selection was performed using Zeocin, G418. Picked clones were grown out from single cells (cultured continuously in the presence of Zeocin and G418) using cloning rings.\nThe resulted stable cell lines are used for characterizing putative taste-blockers."}}, "note": "Where two headings read alike, the source gives them in different places."}
{"smiles": "COc1cc(C(C)C)c(Oc2cnc(N)nc2N)cc1I", "note": "[AF-353, 5-[5-iodo-4-methoxy-2-(1-methylethyl)phenoxy]-2,4-pyrimidinediamine]", "values": [{"measurement": "physically and chemically stable for", "setting": "[1]", "result": "at least 4 weeks"}, {"measurement": "preference for SC-45647 shown by vehicle-administered mice", "setting": "mice", "result": "eliminated"}, {"measurement": "P2X3/P2X2/3 antagonist potency", "setting": "P2X3/P2X2/3", "result": "high"}, {"measurement": "bronchoconstriction-induced nodose C-fiber discharge", "setting": "nodose C-fiber", "result": "blocks"}, {"measurement": "plasma concentration", "setting": "[2]; 0.25 mg/kg", "result": 1.3, "unit": "µM"}, {"measurement": "plasma concentration", "setting": "[2]; 6 mg/kg", "result": 44, "unit": "µM"}, {"measurement": "intensity of sour, bitter, sweet and salty solutions after treatment (moderate before treatment)", "setting": "humans; 100 μM (0.04 mg/mL), 2 minutes as 4×30 sec rinses, four participants", "result": "mild"}, {"measurement": "tastes after treatment", "setting": "humans; 500 μM (0.2 mg/mL), 2×1 min rinses with expectoration", "result": "eliminated"}, {"measurement": "recovery from abolishment of taste", "setting": "humans; 500 μM rinse, at 2 hours after rinsing", "result": "100 % of normal"}, {"measurement": "recovery of taste perception faster in some subjects", "setting": "humans; 500 μM rinse, some subjects", "result": "about 20 minutes"}, {"measurement": "ability to taste fully recovered after", "setting": "humans; after oral rinse", "result": "1.5 to 3", "unit": "h"}, {"measurement": "recovery of the ability to taste began", "setting": "humans; after oral rinse", "result": "≤ 60", "unit": "min"}, {"measurement": "taste blockade (sweet, sour, salty, bitter (Quinine and Praziquantel))", "setting": "humans; topical oral rinse and expectoration, 4 people", "result": "completely blocked taste"}, {"measurement": "negative side effects (oral numbing, tingling, strange oral sensations)", "setting": "humans; topical oral rinse in humans", "result": "did not cause numbness or any strange sensations"}, {"measurement": "block of aroma or carbonation irritation", "setting": "humans; topical oral rinse, 4 people", "result": "did not block"}, {"measurement": "response of the stable cell lines", "setting": "P2X2/3", "result": "dose-dependent manner"}]}
